Results published in patent US8247211B2, “Glycopeptide antibiotics” (American Cyanamid Company, priority 2001, dated 2012).
≈ marks a conversion by molar mass, not a printed value.

Columns and labels:
Experiment in all cases: In vitro antibacterial evaluation: minimum inhibitory concentration (MIC), broth dilution method
Assay type in all cases: cell-based
Escherichia coli = details: 18 hours at 35° C.
Procedure, shortened: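 Using Muller-Hinton II […] and an inoculum of 5×10^5 CFU/mL, antibiotic dilutions from 64 down to 0.06 μg/mL were tested following NCCLS M7-A2. The MIC is the lowest concentration inhibiting growth, including in methicillin-, penicillin- or vancomycin-resistant clinical isolates.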

Streptococcus sp. = details: 18 hours at 35° C.
Procedure, shortened: (§1)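 Following NCCLS approved standard M7-A2, compounds are serially diluted from 64 to 0.06 μg/mL in Muller-Hinton II […] and inoculated at 5×10^5 CFU/mL; the MIC is the minimum concentration at which growth is inhibited.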

Enterococcus sp. = details: 18 hours at 35° C.
Procedure, shortened: as §1

Staphylococcus sp. = details: for MIC Staphylococcus haemolyticus (GC 4546): strain GC 4546
Procedure, shortened: as §1

[1] = broth dilution, inoculum 5×10^5 CFU/mL

Structure (SMILES): CC(c1ccccc1)C1NC(=O)CNC(=O)C(CO)NC(=O)C(CC2CNC(=N)N2C2OC(CO)C(O)C(O)C2O)NC(=O)C(CC2CNC(=N)N2)NC(=O)C(Cc2ccc(OC3OC(CO)C(OC4OC(CO)C(O)C(OCc5ccc(OCc6ccccc6)cc5)C4O)C(O)C3O)cc2)NC1=O (centres unmarked) [Example 246b]
- MIC Escherichia coli (GC 4560) (Escherichia coli; Escherichia coli (GC 4560)): 32 mg/L (≈ 21.9 µM)
- MIC Streptococcus agalactiae (GC 4564) (Streptococcus sp.; Streptococcus agalactiae (GC 4564)): 64 mg/L (≈ 43.8 µM)
- MIC Streptococcus pneumoniae (ATCC 6301) (Streptococcus sp.; Streptococcus pneumoniae (ATCC 6301)): 32 mg/L (≈ 21.9 µM)
- MIC Streptococcus pneumoniae (GC 1894) (Streptococcus sp.; Streptococcus pneumoniae (GC 1894)): 32 mg/L (≈ 21.9 µM)
- MIC Streptococcus pneumoniae (GC 4565) (Streptococcus sp.; Streptococcus pneumoniae (GC 4565)): 64 mg/L (≈ 43.8 µM)
- MIC Streptococcus pyogenes (GC 4563) (Streptococcus sp.; Streptococcus pyogenes (GC 4563)): 64 mg/L (≈ 43.8 µM)
- MIC Streptococcus agalactiae (GC 4564) (Streptococcus sp.; [1]): 64 mg/L (≈ 43.8 µM)
- MIC Streptococcus pneumoniae (ATCC 6301) (Streptococcus sp.; [1]): 32 mg/L (≈ 21.9 µM)
- MIC Streptococcus pneumoniae (GC 1894) (Streptococcus sp.; [1]): 32 mg/L (≈ 21.9 µM)
- MIC Streptococcus pneumoniae (GC 4565) (Streptococcus sp.; [1]): 64 mg/L (≈ 43.8 µM)
- MIC Streptococcus pyogenes (GC 4563) (Streptococcus sp.; [1]): 64 mg/L (≈ 43.8 µM)
- MIC Enterococcus avium (GC 4558) (Enterococcus sp.; Enterococcus avium (GC 4558)): 64 mg/L (≈ 43.8 µM)
- MIC Enterococcus faecium (GC 4557) (Enterococcus sp.; Enterococcus faecium (GC 4557)): 32 mg/L (≈ 21.9 µM)
- MIC Coagulase Negative Staphylococcus (GC 4547) (Staphylococcus sp.; Coagulase Negative Staphylococcus (GC 4547), 18 hours at 35° C.): 64 mg/L (≈ 43.8 µM)
- MIC Coagulase Negative Staphylococcus (GC 4548) (Staphylococcus sp.; Coagulase Negative Staphylococcus (GC 4548), 18 hours at 35° C.): 64 mg/L (≈ 43.8 µM)
- MIC Coagulase Negative Staphylococcus (GC 4549) (Staphylococcus sp.; Coagulase Negative Staphylococcus (GC 4549), 18 hours at 35° C.): 32 mg/L (≈ 21.9 µM)
- MIC Coagulase Negative Staphylococcus (GC 4551) (Staphylococcus sp.; Coagulase Negative Staphylococcus (GC 4551), 18 hours at 35° C.): 64 mg/L (≈ 43.8 µM)
- MIC Coagulase Negative Staphylococcus (GC 6257) (Staphylococcus sp.; Coagulase Negative Staphylococcus (GC 6257), 18 hours at 35° C.): 64 mg/L (≈ 43.8 µM)
- MIC Staphylococcus aureus (ATCC 29213) (Staphylococcus sp.; Staphylococcus aureus (ATCC 29213), 18 hours at 35° C.): 64 mg/L (≈ 43.8 µM)
- MIC Staphylococcus aureus (GC 3051) (Staphylococcus sp.; Staphylococcus aureus (GC 3051), 18 hours at 35° C.): 64 mg/L (≈ 43.8 µM)
- MIC Staphylococcus aureus (GC 4541) (Staphylococcus sp.; Staphylococcus aureus (GC 4541), 18 hours at 35° C.): 64 mg/L (≈ 43.8 µM)
- MIC Staphylococcus aureus (GC 4542) (Staphylococcus sp.; Staphylococcus aureus (GC 4542), 18 hours at 35° C.): 64 mg/L (≈ 43.8 µM)
- MIC Staphylococcus aureus (GC 4544) (Staphylococcus sp.; Staphylococcus aureus (GC 4544), 18 hours at 35° C.): 64 mg/L (≈ 43.8 µM)
- MIC Staphylococcus aureus (GC 4545) (Staphylococcus sp.; Staphylococcus aureus (GC 4545), 18 hours at 35° C.): 64 mg/L (≈ 43.8 µM)
- MIC Staphylococcus aureus-SMITH (GC 4543) (Staphylococcus sp.; Staphylococcus aureus-SMITH (GC 4543), 18 hours at 35° C.): >64 mg/L

Structure (SMILES): N=C1NCC(C(O)C2NC(=O)C(Cc3ccc(OC4OC(CO)C(OC5OC6COC7(OC6C6OC8(OC56)C5CC6CC(C5)CC8C6)C5CC6CC(C5)CC7C6)C(O)C4O)cc3)NC(=O)C(CC3CCCCC3)NC(=O)CNC(=O)C(CO)NC(=O)C(C(O)C3CNC(=N)N3C3OC(CO)C(O)C(O)C3O)NC2=O)N1 (centres unmarked) [Example 106b]
- MIC Escherichia coli (ATCC 25922) (Escherichia coli; 5×10^5 CFU/mL): 64 mg/L (≈ 41.2 µM)
- MIC Escherichia coli (GC 4559) (Escherichia coli; 5×10^5 CFU/mL): 32 mg/L (≈ 20.6 µM)
- MIC Escherichia coli (GC 4560) (Escherichia coli; 5×10^5 CFU/mL): 8 mg/L (≈ 5.16 µM)
- MIC Streptococcus agalactiae (GC 4564) (Streptococcus sp.; broth dilution, 5×10^5 CFU/mL): 0.5 mg/L (≈ 0.322 µM)
- MIC Streptococcus pneumoniae (GC 1894) (Streptococcus sp.; broth dilution, 5×10^5 CFU/mL): <0.12 mg/L
- MIC Streptococcus pneumoniae (GC 4565) (Streptococcus sp.; broth dilution, 5×10^5 CFU/mL): 0.5 mg/L (≈ 0.322 µM)
- MIC Streptococcus pneumonine (ATCC 6301) (Streptococcus sp.; broth dilution, 5×10^5 CFU/mL): 0.5 mg/L (≈ 0.322 µM)
- MIC Streptococcus pyogenes (GC 4563) (Streptococcus sp.; broth dilution, 5×10^5 CFU/mL): 0.5 mg/L (≈ 0.322 µM)
- MIC Enterococccus avium (GC 4558) (Enterococcus sp.; broth dilution, 5×10^5 CFU/mL): 4 mg/L (≈ 2.58 µM)
- MIC Enterococccus faecalis (ATCC 29212) (Enterococcus sp.; broth dilution, 5×10^5 CFU/mL): 8 mg/L (≈ 5.16 µM)
- MIC Enterococccus faecalis (GC 2691) (Enterococcus sp.; broth dilution, 5×10^5 CFU/mL): 16 mg/L (≈ 10.3 µM)
- MIC Enterococccus faecalis (GC 3059) (Enterococcus sp.; broth dilution, 5×10^5 CFU/mL): 16 mg/L (≈ 10.3 µM)
- MIC Enterococccus faecalis (GC 4552) (Enterococcus sp.; broth dilution, 5×10^5 CFU/mL): 8 mg/L (≈ 5.16 µM)
- MIC Enterococccus faecalis (GC 4553) (Enterococcus sp.; broth dilution, 5×10^5 CFU/mL): 8 mg/L (≈ 5.16 µM)
- MIC Enterococccus faecalis (GC 4554) (Enterococcus sp.; broth dilution, 5×10^5 CFU/mL): 16 mg/L (≈ 10.3 µM)
- MIC Enterococccus faecalis (GC 6189) (Enterococcus sp.; broth dilution, 5×10^5 CFU/mL): 8 mg/L (≈ 5.16 µM)
- MIC Enterococccus faecium (GC 2243) (Enterococcus sp.; broth dilution, 5×10^5 CFU/mL): 8 mg/L (≈ 5.16 µM)
- MIC Enterococccus faecium (GC 4556) (Enterococcus sp.; broth dilution, 5×10^5 CFU/mL): 8 mg/L (≈ 5.16 µM)
- MIC Enterococccus faecium (GC 4557) (Enterococcus sp.; broth dilution, 5×10^5 CFU/mL): 4 mg/L (≈ 2.58 µM)
- MIC Enterococcus faecalis (GC 2242) (Enterococcus sp.; broth dilution, 5×10^5 CFU/mL): 8 mg/L (≈ 5.16 µM)
- MIC Staphylococcus aureus (ATCC 29213) (Staphylococcus sp.; strain ATCC 29213): 8 mg/L (≈ 5.16 µM)
- MIC Staphylococcus aureus (GC 1131) (Staphylococcus sp.; strain GC 1131): 8 mg/L (≈ 5.16 µM)
- MIC Staphylococcus aureus (GC 3051) (Staphylococcus sp.; strain GC 3051): 8 mg/L (≈ 5.16 µM)
- MIC Staphylococcus aureus (GC 3053) (Staphylococcus sp.; strain GC 3053): 8 mg/L (≈ 5.16 µM)
- MIC Staphylococcus aureus (GC 4541) (Staphylococcus sp.; strain GC 4541): 16 mg/L (≈ 10.3 µM)
- MIC Staphylococcus aureus (GC 4542) (Staphylococcus sp.; strain GC 4542): 8 mg/L (≈ 5.16 µM)
- MIC Staphylococcus aureus-SMITH (GC 4543) (Staphylococcus sp.; strain GC 4543, 18 hours at 35° C.): 8 mg/L (≈ 5.16 µM)
- MIC Staphylococcus aureus-SMITH (GC 4543) (Staphylococcus sp.; strain GC 4543, broth dilution, 18 hours at 35° C.): 8 mg/L (≈ 5.16 µM)
- MIC Staphylococcus aureus (GC 4544) (Staphylococcus sp.; strain GC 4544): 16 mg/L (≈ 10.3 µM)
- MIC Staphylococcus aureus (GC 4545) (Staphylococcus sp.; strain GC 4545): 8 mg/L (≈ 5.16 µM)
- MIC Staphylococcus haemolyticus (GC 4546) (Staphylococcus sp.): 4 mg/L (≈ 2.58 µM)
- MIC Staphylococcus haemolyticus (GC 4546) (Staphylococcus sp.; broth dilution, 18 hours at 35° C.): 4 mg/L (≈ 2.58 µM)
- MIC Coagulase Negative Staphylococcus (GC 4547) (Staphylococcus sp.; strain GC 4547): 8 mg/L (≈ 5.16 µM)
- MIC Coagulase Negative Staphylococcus (GC 4547) (Staphylococcus sp.; strain GC 4547, broth dilution, 18 hours at 35° C.): 8 mg/L (≈ 5.16 µM)
- MIC Coagulase Negative Staphylococcus (GC 4548) (Staphylococcus sp.; strain GC 4548): 4 mg/L (≈ 2.58 µM)
- MIC Coagulase Negative Staphylococcus (GC 4548) (Staphylococcus sp.; strain GC 4548, broth dilution, 18 hours at 35° C.): 4 mg/L (≈ 2.58 µM)
- MIC Coagulase Negative Staphylococcus (GC 4549) (Staphylococcus sp.; strain GC 4549): 4 mg/L (≈ 2.58 µM)
- MIC Coagulase Negative Staphylococcus (GC 4549) (Staphylococcus sp.; strain GC 4549, broth dilution, 18 hours at 35° C.): 4 mg/L (≈ 2.58 µM)
- MIC Coagulase Negative Staphylococcus (GC 4551) (Staphylococcus sp.; strain GC 4551): 8 mg/L (≈ 5.16 µM)
- MIC Coagulase Negative Staphylococcus (GC 4551) (Staphylococcus sp.; strain GC 4551, broth dilution, 18 hours at 35° C.): 8 mg/L (≈ 5.16 µM)
